Reference: patent publication US20220401514A1, “ANTIMICROBIAL, BACTERIOPHAGE-DERIVED POLYPEPTIDES AND THEIR USE AGAINST GRAM-NEGATIVE AND ACID-FAST BACTERIA” (CONTRAFECT CORPORATION, priority 2019, published 2022)
Like-named read-outs stand apart in the source and are kept apart here.

Experiments:
[1] = test system: P. aeruginosa strain CFS-1292; assay: MIC in presence and absence of Survanta pulmonary surfactant; type: cell-based, Pseudomonas aeruginosa
Enterobacter cloacae = assay: microbe, parasite or virus in culture; type: cell-based
Method in brief: (§1)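 Human serum was added to CAA broth for these MIC determinations with peptides.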

Escherichia coli = assay: microbe, parasite or virus in culture; type: cell-based
Method in brief: as §1

[2] = test system: carbapenem-resistant P. aeruginosa clinical isolate CFS-1292; assay: MIC by modified CLSI broth microdilution against P. aeruginosa CFS-1292 (CAA, CAA + human serum); type: cell-based, Pseudomonas aeruginosa; details: 100% CAA; 1st run or single value
Acinetobacter baumannii = assay: microbe, parasite or virus in culture; type: cell-based
[3] = Stability assessment in 100% CAA; type: in vitro ADME; design: unit not given beside the values
Experimental: Stability was assessed after incubation in 100% human serum at 37° C. after 10 minutes, 1 hour, and 2 hours.
Stability assessment was further conducted in 100% CAA and rabbit serum using the same methodology discussed above.

Klebsiella pneumoniae [4] = type: cell-based
Experimental: (§2) Determination of Minimal Inhibitory Concentrations (MIC).
Additional MIC testing was performed for several peptides against the ESKAPE pathogens Escherichia coli, Enterobacter cloacae, Klebsiella pneumoniae, and Acinetobacter baumannii, in CAA supplemented with human serum (Table D).

[5] = test system: P. aeruginosa strain CFS-1292; assay: MIC in presence and absence of NaCl (140 mM); type: cell-based, Pseudomonas aeruginosa
Experimental: Certain Chp peptides were evaluated over a range of physiological NaCl levels and pH values, and were further evaluated for activity in the presence of various divalent cations.

Klebsiella pneumoniae [6] = assay: microbe, parasite or virus in culture; type: cell-based; details: CAA without human serum
[7] = test system: carbapenem-resistant bacterial strains; assay: organism not typed; type: cell-based
Source text: as §2

Salmonella typhimurium = assay: MIC against Salmonella typhimurium; type: cell-based
S. maltophilia = assay: MIC against S. maltophilia isolates; type: cell-based, Stenotrophomonas maltophilia; details: S. maltophilia isolates (n per peptide in table)
Method in brief: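 Chp peptides were tested on a set of S. maltophilia isolates (n = isolates per species), with minimal inhibitory concentrations given in μg/mL.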

M. smegmatis = assay: 45 hr MIC against M. smegmatis (NTM), Mueller Hinton broth; type: cell-based, Mycobacterium smegmatis; details: M. smegmatis MC^2 155, Run #1
[8] = test system: P. aeruginosa strain CFS-1292; assay: MIC in presence of divalent cations (calcium chloride, magnesium sulfate); type: cell-based, Pseudomonas aeruginosa
Experimental: Next, Chp peptides were evaluated in the presence of different divalent cations. […]; (2) in the presence of 2 mM calcium chloride alone; (3) in the presence of 1 mM magnesium sulfate alone; and (4) in the presence of both 2 mM calcium chloride and 1 mM magnesium sulfate. […]

Pseudomonas aeruginosa = assay: microbe, parasite or virus in culture; type: cell-based; details: for MIC: CAA without human serum
[9] = test system: P. aeruginosa strain CFS-1292; assay: MIC at pH 6, pH 7 and pH 8; type: cell-based, Pseudomonas aeruginosa
Experimental: The Chp peptides were further evaluated at varying pH levels. The MIC values were determined at pH 6, pH 7, and pH 8 for 18 different Chp peptides against P. aeruginosa strain CFS-1292. […]

[10] = E. cloacae isolates (n per peptide in table)
[11] = E. coli isolates (n per peptide in table)
[12] = A. baumannii isolates (n per peptide in table)
[13] = K. pneumoniae isolates (n per peptide in table)
[14] = P. aeruginosa isolates (n per peptide in table)

## MARSRRRMSKRSSRRSFRKYAKTHKRNFKARSMRGGIRL [Ecp1]
[1]; CAA media + 0.19 mg/mL Survanta
  MIC: 0.5 µg/mL
[1]; CAA media + […] Survanta
  MIC: 0.5 µg/mL
[1]; CAA media alone
  MIC: 0.5 µg/mL
Enterobacter cloacae; [10]
  MIC50: 0.5 µg/mL
  MIC100: 2 µg/mL
  MIC Range: 0.25 to 4 µg/mL
Enterobacter cloacae; Enterobacter cloacae (ATCC 13047, MIC control strain), RSC 1240, CAA without human serum
  MIC: 2 µg/mL
Enterobacter cloacae; Enterobacter cloacae ATCC 13047, CAA supplemented with human serum
  MIC: 16 µg/mL
Escherichia coli; E. coli (ATCC 25922, MIC control strain), RSC 813, CAA without human serum
  MIC: 2 µg/mL
Escherichia coli; E. coli (HM346, colon, Crohn's disease), RSC 1212, CAA without human serum
  MIC: 2 µg/mL
Escherichia coli; [11]
  MIC50: 0.5 µg/mL
  MIC100: 2 µg/mL
  MIC Range: 0.25 to 4 µg/mL
Escherichia coli; Escherichia coli ATCC 25922, CAA supplemented with human serum
  MIC: 0.25 µg/mL
[2]
  MIC (μg/mL) against CFS-1292 in 100% CAA (1st run/2nd run): 0.5 µg/mL
Acinetobacter baumannii; [12]
  MIC50: 0.5 µg/mL
  MIC100: 1 µg/mL
  MIC Range: 0.125 to 2 µg/mL
Acinetobacter baumannii; Acinetobacter baumannii (clinical isolate HSS), RSC 30, CAA without human serum
  MIC: 2 µg/mL
Acinetobacter baumannii; Acinetobacter baumannii (clinical isolate HSS), RSC 32, CAA without human serum
  MIC: 2 µg/mL
Acinetobacter baumannii; Acinetobacter baumannii ATCC BAA 747, CAA supplemented with human serum
  MIC: 1 µg/mL
[3]
  MIC (100% CAA): 0.25
Klebsiella pneumoniae [4]; [13]
  MIC50: 1 µg/mL
  MIC100: 2 µg/mL
  MIC Range: 1 to 2 µg/mL
Klebsiella pneumoniae [4]; Klebsiella pneumoniae HM-44, CAA supplemented with human serum
  MIC: 0.5 µg/mL
[5]; CAA + 140 mM NaCl versus CAA without added NaCl
  Fold change in MIC: 4
[5]; CAA + 140 mM NaCl, P. aeruginosa CFS-1292
  MIC, CAA + 140 mM NaCl: 2 µg/mL
[5]; CAA, no added NaCl, P. aeruginosa CFS-1292
  MIC, CAA (no added NaCl): 0.5 µg/mL
Klebsiella pneumoniae [6]; Klebsiella pneumoniae (ATCC 10031, MIC control strain), RSC 814
  MIC: 2 µg/mL
Klebsiella pneumoniae [6]; Klebsiella pneumoniae (g2-3 HM35K), RSC 1138
  MIC: 2 µg/mL
Klebsiella pneumoniae [6]; Klebsiella sp. (HM-44; colon, Crohn's disease), RSC 1139
  MIC: 2 µg/mL
Klebsiella pneumoniae [6]; Klebsiella spp. (HM-223; gut of Crohn's disease patient), RSC 1131
  MIC: 2 µg/mL
[7]; carbapenem-resistant isolate PA19
  MIC: 1 µg/mL
[7]; carbapenem-resistant isolate PA20
  MIC: >8 µg/mL
[7]; carbapenem-resistant isolate PA21
  MIC: >8 µg/mL
[7]; carbapenem-resistant isolate PA22
  MIC: 8 µg/mL
[7]; carbapenem-resistant isolate PA23
  MIC: 4 µg/mL
[7]; carbapenem-resistant isolate PA24
  MIC: 4 µg/mL
[7]; carbapenem-resistant isolate WLC-452
  MIC: 2 µg/mL
Salmonella typhimurium; Salmonella typhimurium
  MIC: 2 µg/mL
Salmonella typhimurium; Salmonella typhimurium LT2 (lab isolate), RSC 27, CAA without human serum
  MIC: 2 µg/mL
S. maltophilia
  MIC50: 8 µg/mL
  MIC100: >8 µg/mL
M. smegmatis
  45 hr MIC: 4 µg/mL
[8]; CAA media + 1 mM MgSO4
  MIC: 0.5 µg/mL
[8]; CAA media + 2 mM CaCl2
  MIC: 1 µg/mL
[8]; CAA media + + 1 mM MgSO4
  MIC: 1 µg/mL
[8]; CAA media alone
  MIC: 0.5 µg/mL
Pseudomonas aeruginosa; P. aeruginosa 453 (Human clinical isolate, HSS), RSC 1292
  MIC: 2 µg/mL
Pseudomonas aeruginosa; P. aeruginosa (ATCC 14213, human hip wound), RSC 1111
  MIC: 2 µg/mL
Pseudomonas aeruginosa; P. aeruginosa (ATCC 15152, abscess in middle ear), RSC 1110
  MIC: 1 µg/mL
Pseudomonas aeruginosa; P. aeruginosa (ATCC 15692, infected wound), RSC 489
  MIC: 2 µg/mL
Pseudomonas aeruginosa; P. aeruginosa (ATCC 15692, infected wound), RSC 1115
  MIC: 2 µg/mL
Pseudomonas aeruginosa; P. aeruginosa (ATCC 17646, human liver abscess), RSC 1109
  MIC: 2 µg/mL
Pseudomonas aeruginosa; P. aeruginosa (ATCC 19142, tracheobronchial secretion), RSC 1108
  MIC: 1 µg/mL
Pseudomonas aeruginosa; P. aeruginosa (ATCC 25102, bacteriophage host), RSC 1114
  MIC: 2 µg/mL
Pseudomonas aeruginosa; P. aeruginosa (ATCC 27853, MIC control strain), RSC 815
  MIC: 2 µg/mL
Pseudomonas aeruginosa; P. aeruginosa (ATCC BAA-27, lab strain), RSC 1113
  MIC: 4 µg/mL
Pseudomonas aeruginosa; P. aeruginosa (PAO1, alternate source, HER1018), RSC 490
  MIC: 2 µg/mL
Pseudomonas aeruginosa; [14]
  MIC50: 4 µg/mL
  MIC100: >8 µg/mL
[9]; CAA media (pH 7)
  MIC: 0.5 µg/mL
[9]; pH 6
  MIC: 1 µg/mL
[9]; pH 7
  MIC: 1 µg/mL
[9]; pH 8
  MIC: 1 µg/mL
